Data taken from patent US20030130174A1, “Glycosulfopeptide inhibitors of leukocyte rolling and methods of use thereof” (priority 2001, published 2003).
Where a SMILES comes first, the peptide text is derived from it. [ ]: non-standard residue; d: D form. The star is where a group is joined. X1 = CC(=O)N[C@@H]1[C@@H](O[C@@H]2O[C@H](CO)[C@H](O)[C@H](O)[C@H]2O)[C@@H](O)[C@@H](CO[C@@H]2O[C@H](CO)[C@@H](O[C@@H]3O[C@H](CO)[C@H](O)[C@H](O[C@]4(C(=O)O)C[C@H](O)[C@@H](NC(C)=O)[C@H]([C@H](O)[C@H](O)CO)O4)[C@H]3O)[C@H](O[C@@H]3O[C@@H](C)[C@@H](O)[C@@H](O)[C@@H]3O)[C@H]2NC(C)=O)O[C@@H]1*; sY = N[C@@H](Cc1ccc(OS(=O)(=O)O)cc1)C(=O)O

Conditions: mouse, in vivo
Experimental: Microscopic observations were made using an upright microscope (NIKON ECLIPSE E600-FN, Nikon UK Ltd, UK) equipped with a water immersion objective (40×/0.80 W). Images were recorded using a CCD camera (DAGE MTI DC-330, DAGE MTI Inc, Michigan City, Ind.) onto sVHS video-cassettes. Venules (20-40 μM diameter) were selected and typically observed for the entire experimental period. Centre-line blood flow velocity (VCL) in was measured in vessels of interest using a commercially available velocimeter (CIRCUSOFT, Hockessin, Del.). Vessels with VCL between 1 and 5 mm/s were selected for these studies.
Control leukocyte rolling was recorded exactly 30 min after exposure of the cremaster muscle for intravital microscopy since leukocyte rolling at this time is almost exclusively P-selectin-dependent . GSPs were injected at 31 min and their effects monitored for 10 min. […] Blood flow velocities and circulating leukocyte concentrations were measured at key times (before and after treatments) during experiments.

CC(=O)N[C@H]1[C@H](OC[C@H]2O[C@H](O[C@H](C)[C@H](NC(=O)[C@H](CCC(=O)O)NC(=O)[C@@H]3CCCN3C(=O)[C@H](CC(C)C)NC(=O)[C@H](Cc3ccccc3)NC(=O)[C@H](CC(=O)O)NC(=O)[C@H](Cc3ccc(OS(=O)(=O)O)cc3)NC(=O)[C@H](CC(=O)O)NC(=O)[C@H](CC(C)C)NC(=O)[C@H](Cc3ccc(OS(=O)(=O)O)cc3)NC(=O)[C@H](CCC(=O)O)NC(=O)[C@H](Cc3ccc(OS(=O)(=O)O)cc3)NC(=O)[C@@H](N)CCC(=O)O)C(=O)N[C@@H](CCC(=O)O)C(=O)N3CCC[C@H]3C(=O)N3CCC[C@H]3C(=O)N[C@@H](CCC(=O)O)C(=O)N[C@@H](CS)C(=O)O)[C@H](NC(C)=O)[C@@H](O[C@@H]3O[C@H](CO)[C@H](O)[C@H](O)[C@H]3O)[C@H]2O)O[C@H](CO)[C@@H](O[C@@H]2O[C@H](CO)[C@H](O)[C@H](O[C@]3(C(=O)O)C[C@H](O)[C@@H](NC(C)=O)[C@H]([C@H](O)[C@H](O)CO)O3)[C@H]2O)[C@@H]1O[C@@H]1O[C@@H](C)[C@@H](O)[C@@H](O)[C@@H]1O [2-GSP-6] (H-E[sY]E[sY]LD[sY]DFLPET(X1)EPPEC-OH)
Systemic leukocyte counts following treatment: increased slightly
